According to BindingDB's records for doi:10.1016/j.bioorg.2016.06.001 (Tehran University of Medical Sciences, 2016):

Experiments:
Details in all cases: pH 8
[1] = molecular target: Acetylcholinesterase (Electrophorus electricus, UniProt O42275); test: AChE and BChE Inhibition Assay
Method: (§1) In vitro AChEI activity was performed based on the modified Ellman's methodas previously reported by our group using a 96-well plate reader (BioTek ELx808). […] Each well contained 50 uL potassium phosphate buffer (KH2PO4/K2HPO4, 0.1 M, pH 8), 25 uL prepared sample as described above, 25 uL enzyme with final concentration of 0.22 U/mL in buffer. They were preincubated for 15 min at rt, and then 125 uL DTNB (3 mM in buffer) was added. […] The IC50 values were determined graphically from inhibition curves (log inhibitor concentration vs. percent of inhibition).

[2] = molecular target: Carboxylic ester hydrolase (Equus caballus, UniProt Q9N1N9); test: AChE and BChE Inhibition Assay
Method: as §1

[3] = AChE and BChE Inhibition Assay

Acetylcholinesterase, sequence (O42275 whole entry): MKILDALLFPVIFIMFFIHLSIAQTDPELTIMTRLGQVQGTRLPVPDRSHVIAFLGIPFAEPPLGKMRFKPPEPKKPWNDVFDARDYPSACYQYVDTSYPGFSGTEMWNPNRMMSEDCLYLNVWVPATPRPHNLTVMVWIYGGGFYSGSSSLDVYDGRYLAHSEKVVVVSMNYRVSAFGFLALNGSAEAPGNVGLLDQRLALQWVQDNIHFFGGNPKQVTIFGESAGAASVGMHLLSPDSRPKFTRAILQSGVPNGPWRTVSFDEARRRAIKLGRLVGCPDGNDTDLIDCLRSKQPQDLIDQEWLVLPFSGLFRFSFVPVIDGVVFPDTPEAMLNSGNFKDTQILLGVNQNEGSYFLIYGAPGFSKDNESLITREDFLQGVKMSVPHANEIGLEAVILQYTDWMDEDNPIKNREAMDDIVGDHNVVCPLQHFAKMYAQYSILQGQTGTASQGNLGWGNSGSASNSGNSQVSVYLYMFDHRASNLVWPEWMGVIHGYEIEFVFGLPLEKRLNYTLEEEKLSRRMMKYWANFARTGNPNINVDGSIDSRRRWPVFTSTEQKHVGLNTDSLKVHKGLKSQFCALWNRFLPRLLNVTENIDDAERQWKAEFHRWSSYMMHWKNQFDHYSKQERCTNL
Carboxylic ester hydrolase, sequence (Q9N1N9 whole entry): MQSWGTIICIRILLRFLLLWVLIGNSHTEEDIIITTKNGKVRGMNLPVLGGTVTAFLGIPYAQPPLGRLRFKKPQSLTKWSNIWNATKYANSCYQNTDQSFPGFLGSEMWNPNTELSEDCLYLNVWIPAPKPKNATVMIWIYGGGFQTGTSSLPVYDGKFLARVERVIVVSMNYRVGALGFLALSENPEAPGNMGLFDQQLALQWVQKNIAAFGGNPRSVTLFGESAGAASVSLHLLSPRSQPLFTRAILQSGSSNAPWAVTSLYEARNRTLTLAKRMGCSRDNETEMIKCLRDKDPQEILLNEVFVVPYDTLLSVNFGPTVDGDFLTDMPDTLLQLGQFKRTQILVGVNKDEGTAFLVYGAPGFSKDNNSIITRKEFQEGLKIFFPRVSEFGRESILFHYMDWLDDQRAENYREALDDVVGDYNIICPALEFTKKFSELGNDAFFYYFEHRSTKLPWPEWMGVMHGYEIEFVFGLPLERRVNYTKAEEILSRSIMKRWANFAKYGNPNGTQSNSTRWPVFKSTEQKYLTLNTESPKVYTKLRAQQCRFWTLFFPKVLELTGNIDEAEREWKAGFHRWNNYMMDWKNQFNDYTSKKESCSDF

SMILES | IC50 [1] [µM] | IC50 [2] [µM] | IC50 [3] [µM]
O=c1ccc2ccc(Oc3ccc(Nc4c5c(nc6ccccc46)CCCCC5)cc3)cc2o1 [7-(4-((7,8,9,10-Tetrahydro-6H-cyclohepta[b]quinolin-11-yl)amino)phenoxy)-2H-chromen-2-one (8m)] | > 100 | > 100 | –
Cc1cc(=O)oc2cc(Oc3ccc(Nc4c5c(nc6ccccc46)CCCC5)cc3)ccc12 [4-Methyl-7-(4-((1,2,3,4-tetrahydroacridin-9-yl)amino)phenoxy)-2H-chromen-2-one (8j)] | 22.1 | 38.6 | –
O=c1ccc2ccc(Oc3ccc(Nc4c5c(nc6cc(Cl)ccc46)CCCCC5)cc3)cc2o1 [7-(4-((3-Chloro-7,8,9,10-tetrahydro-6H-cyclohepta[b]quinolin-11-yl)amino)phenoxy)-2H-chromen-2-one (8n)] | > 100 | > 100 | –
Cc1cc(=O)oc2cc(Oc3ccc(Nc4c5c(nc6cc(Cl)ccc46)CCC5)cc3)ccc12 [7-(4-((6-Chloro-2,3-dihydro-1H-cyclopenta[b]quinolin-9-yl)amino)phenoxy)-4-methyl-2H-chromen-2-one (8e)] | 16.2 | > 100 | 7.99
Cc1cc(=O)oc2cc(Oc3ccc(Nc4c5c(nc6cc(Cl)ccc46)CCCC5)cc3)ccc12 [7-(4-((6-Chloro-1,2,3,4-tetrahydroacridin-9-yl)amino)phenoxy)-4-methyl-2H-chromen-2-one (8k)] | 18 | 31.2 | –
Cc1cc(=O)oc2cc(Oc3ccc(Nc4c5c(nc6ccc(Cl)cc46)CCC5)cc3)ccc12 [7-(4-((7-Chloro-2,3-dihydro-1H-cyclopenta[b]quinolin-9-yl)amino)phenoxy)-4-methyl-2H-chromen-2-one (8f)] | 36.7 | > 100 | –
O=c1ccc2ccc(Oc3ccc(Nc4c5c(nc6ccc(Cl)cc46)CCC5)cc3)cc2o1 [7-(4-((7-Chloro-2,3-dihydro-1H-cyclopenta[b]quinolin-9-yl)amino)phenoxy)-2H-chromen-2-one (8c)] | 38.5 | > 100 | –
O=c1ccc2ccc(Oc3ccc(Nc4c5c(nc6cc(Cl)ccc46)CCC5)cc3)cc2o1 [7-(4-((6-Chloro-2,3-dihydro-1H-cyclopenta[b]quinolin-9-yl)amino)phenoxy)-2H-chromen-2-one (8b)] | > 100 | 11.6 | –
O=c1ccc2ccc(Oc3ccc(Nc4c5c(nc6ccc(Cl)cc46)CCCC5)cc3)cc2o1 [7-(4-((7-Chloro-1,2,3,4-tetrahydroacridin-9-yl)amino)phenoxy)-2H-chromen-2-one (8i)] | > 100 | > 100 | –
O=c1ccc2ccc(Oc3ccc(Nc4c5c(nc6cc(Cl)ccc46)CCCC5)cc3)cc2o1 [7-(4-((6-Chloro-1,2,3,4-tetrahydroacridin-9-yl)amino)phenoxy)-2H-chromen-2-one (8h)] | > 100 | > 100 | –
Cc1cc(=O)oc2cc(Oc3ccc(Nc4c5c(nc6ccccc46)CCCCC5)cc3)ccc12 [4-Methyl-7-(4-((7,8,9,10-tetrahydro-6H-cyclohepta[b]quinolin-11-yl)amino)phenoxy)-2H-chromen-2-one (8o)] | 64.4 | > 100 | –
Cc1cc(=O)oc2cc(Oc3ccc(Nc4c5c(nc6ccccc46)CCC5)cc3)ccc12 [7-(4-((2,3-Dihydro-1H-cyclopenta[b]quinolin-9-yl)amino)phenoxy)-4-methyl-2H-chromen-2-one (8d)] | 45.3 | > 100 | –
O=c1ccc2ccc(Oc3ccc(Nc4c5c(nc6ccccc46)CCC5)cc3)cc2o1 [7-(4-((2,3-Dihydro-1H-cyclopenta[b]quinolin-9-yl)amino)phenoxy)-2H-chromen-2-one (8a)] | 83.1 | > 100 | –
Cc1cc(=O)oc2cc(Oc3ccc(Nc4c5c(nc6cc(Cl)ccc46)CCCCC5)cc3)ccc12 [7-(4-((3-Chloro-7,8,9,10-tetrahydro-6H-cyclohepta[b]quinolin-11-yl)amino)phenoxy)-4-methyl-2H-chromen-2-one (8p)] | 31.8 | > 100 | –
Cc1cc(=O)oc2cc(Oc3ccc(Nc4c5c(nc6ccc(Cl)cc46)CCCCC5)cc3)ccc12 [7-(4-(2-Chloro-7,8,9,10-tetrahydro-6H-cyclohepta[b]quinolin-11-ylamino)phenoxy)-4-methyl-2H-chromen-2-one (8q)] | 54.1 | > 100 | –
Cc1cc(=O)oc2cc(Oc3ccc(Nc4c5c(nc6ccc(Cl)cc46)CCCC5)cc3)ccc12 [7-(4-((7-Chloro-1,2,3,4-tetrahydroacridin-9-yl)amino)phenoxy)-4-methyl-2H-chromen-2-one (8l)] | 30.8 | > 100 | –
O=c1ccc2ccc(Oc3ccc(Nc4c5c(nc6ccccc46)CCCC5)cc3)cc2o1 [7-(4-((1,2,3,4-Tetrahydroacridin-9-yl)amino)phenoxy)-2H-chromen-2-one (8g)] | 19.1 | 28.7 | –
